Experimental data from the supplement of paper PMC11061612.

What was measured:
Test in all cases: Bliss excess, mean over the matrix (fraction); higher = more synergy
[1] = system: SW1710 (Bladder Carcinoma)
How it was run: (§1)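 Bliss excess equals the observed combination effect minus the expected value EA + EB − EA·EB, where EA and EB are the effects of each agent alone. Combination Emax is the second-highest inhibition within the matrix. Inhibition was scaled from CellTiter-Glo 2.0 luminescence, with 0 set by vehicle wells and 1 by blank wells, after 72 hours of two-drug dosing of cells plated in 1536-well plates.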

EW-11 (Ewing's Sarcoma) = system: EW-11 (Ewing's Sarcoma)
How it was run: as §1

[2] = system: NCI-H209 (Small Cell Lung Carcinoma)
How it was run: as §1

[3] = system: HuCCT1 (Biliary Tract Carcinoma)
How it was run: as §1

[4] = system: OV-56 (Ovarian Carcinoma)
How it was run: as §1

GAMG (Glioblastoma) = system: GAMG (Glioblastoma)
How it was run: as §1

[5] = system: ESS-1 (Other Solid Carcinomas)
How it was run: as §1

[6] = system: ALL-PO (B-Lymphoblastic Leukemia)
How it was run: as §1

[7] = system: OVCAR-5 (Ovarian Carcinoma)
How it was run: as §1

[8] = system: CAL-33 (Oral Cavity Carcinoma)
How it was run: as §1

[9] = system: L-428 (Hodgkin's Lymphoma)
How it was run: as §1

[10] = system: NUGC-4 (Gastric Carcinoma)
How it was run: as §1

[11] = system: BFTC-909 (Kidney Carcinoma)
How it was run: as §1

[12] = system: LNZTA3WT4 (Low Grade Glioma)
How it was run: as §1

[13] = system: YAPC (Pancreatic Carcinoma)
How it was run: as §1

LOXIMVI (Melanoma) = system: LOXIMVI (Melanoma)
How it was run: as §1

[14] = system: HH (T-Cell Non-Hodgkin's Lymphoma)
How it was run: as §1

[15] = system: FTC-133 (Thyroid Gland Carcinoma)
How it was run: as §1

[16] = system: MHH-CALL-2 (B-Lymphoblastic Leukemia)
How it was run: as §1

NCI-H2052 (Mesothelioma) = system: NCI-H2052 (Mesothelioma)
How it was run: as §1

Row | SMILES | Bliss excess [1] | Bliss excess (EW-11 (Ewing's Sarcoma)) | Bliss excess [2] | Bliss excess [3] | Bliss excess [4] | Bliss excess (GAMG (Glioblastoma)) | Bliss excess [5] | Bliss excess [6] | Bliss excess [7] | Bliss excess [8] | Bliss excess [9] | Bliss excess [10] | Bliss excess [11] | Bliss excess [12] | Bliss excess [13] | Bliss excess (LOXIMVI (Melanoma)) | Bliss excess [14] | Bliss excess [15] | Bliss excess [16] | Bliss excess (NCI-H2052 (Mesothelioma))
1 | COc1nnc2ccc(N3CCC(c4ccc(OCCN5CCN(C)C(=O)[C@H]5C)cc4)CC3)nn12 [AZD5153] + C[C@@H]1COCCN1C2=NC(=NC(=C2)C3(CC3)[S@](=N)(=O)C)C4=C5C=CNC5=NC=C4 [AZD6738] (first compound max 1 µM, 7x7, partner max 10 µM) | 0.0013 | 0.0006 | 0.019 | -0.046 | 0.0824 | 0.04 | -0.0192 | 0.0106 | -0.0276 | -0.031 | 0.009 | 0.0188 | -0.0072 | 0.0648 | 0.0088 | -0.0413 | -0.0324 | 0.0856 | -0.0397 | -0.0497
2 | Cn1cnc2c(F)c(Nc3ccc(Br)cc3Cl)c(C(=O)NOCCO)cc21 [Selumetinib] + CC(C)n1c(=O)n(C)c2cnc3cc(F)c(-c4ccc(OCCCN5CCCCC5)nc4)cc3c21 [AZD1390] (first compound max 10 µM, 7x7, partner max 0.3 µM) | -0.059 | -0.0399 | -0.037 | 0.0231 | -0.0526 | -0.0242 | -0.0044 | 0.0208 | 0.0017 | 0.0649 | -0.0231 | -0.0045 | -0.024 | -0.0324 | -0.033 | -0.0098 | -0.0536 | -0.034 | 0.0042 | -0.0242
3 | COc1nnc2ccc(N3CCC(c4ccc(OCCN5CCN(C)C(=O)[C@H]5C)cc4)CC3)nn12 [AZD5153] + Cn1cnc2c(F)c(Nc3ccc(Br)cc3Cl)c(C(=O)NOCCO)cc21 [Selumetinib] (first compound max 1 µM, 7x7, partner max 10 µM) | -0.0433 | -0.0633 | -0.0214 | 0.0453 | -0.0232 | -0.0192 | -0.0065 | -0.0054 | -0.0429 | 0.0584 | -0.0409 | 0.0186 | -0.0399 | -0.143 | 0.0121 | -0.0679 | -0.0817 | -0.0539 | -0.0438 | 0.0301
4 | NC1(C(=O)N[C@@H](CCO)c2ccc(Cl)cc2)CCN(c2ncnc3[nH]ccc23)CC1 [Capivasertib] + CCN(CCO)CCCOc1ccc2c(Nc3cc(CC(=O)Nc4cccc(F)c4)[nH]n3)ncnc2c1 [AZD2811] (first compound max 10 µM, 7x7, partner max 1 µM) | -0.0507 | 0.0737 | -0.0383 | 0.0051 | -0.0077 | -0.0737 | 0.0203 | -0.0254 | -0.0223 | -0.0564 | 0.0098 | -0.0543 | 0.0366 | -0.0551 | 0.0161 | -0.0072 | -0.0221 | 0.0005 | -0.0244 | 0.0076
